The structures appear in SMILES notation.

For one data set, the system named is Pyricularia oryzae.
Assay: not given
The format is in vivo. Particulars: paddy rice (Aichi Asahi), submerged application, 10 g a.i./10 a, inoculated 10 days after treatment, lesions counted 6 days after inoculation.
Take `Cc1cccc(C)c1C(=O)OCc1snc(Cl)c1Cl` [II-77]: the Evaluation entry is “C (protective value: less than 80.0% to 50.0% or more)” and the Protective value amounted to 74.1%.

Take `O=C(OCc1snc(Cl)c1Cl)c1ccccc1` [II-1, (3,4-dichloroisothiazol-5-yl)methyl benzoate]: the Evaluation result was “A (protective value: 100% to 90.0% or more)” and the Protective value is reported as 92.3%.

For the compound `CC(=O)OCc1snc(Cl)c1Cl` [I-1], the Evaluation result is given as “A (protective value: 100% to 90.0% or more)” and the Protective value is listed as 96.1%.

On to `Cc1cccc([N+](=O)[O-])c1C(=O)OCc1snc(Cl)c1Cl` [II-82], for which the Evaluation entry is listed as “B (protective value: less than 90.0% to 80.0% or more)” and the Protective value is 88.0%.

For the compound `CS(=O)(=O)c1ccccc1C(=O)OCc1snc(Cl)c1Cl` [II-66], the Evaluation result is on record as “A (protective value: 100% to 90.0% or more)” and the Protective value worked out at 97.8%.

Turning to `O=C(OCc1snc(Cl)c1Cl)c1ccccc1[N+](=O)[O-]` [II-55], the Evaluation entry is “A (protective value: 100% to 90.0% or more)” and the Protective value was 98.8%.

Take `N#Cc1ccccc1C(=O)OCc1snc(Cl)c1Cl` [II-17]: the Evaluation entry is “A (protective value: 100% to 90.0% or more)” and the Protective value amounted to 98.2%.

Consider `Cc1cc(COC(=O)c2cc(C)ns2)sn1` [Comparative compound, reference compound], for which the Evaluation result is “D (protective value: less than 50.0%)” and the Protective value stood at 45.9%.

For `CC(=S)OCc1snc(Cl)c1Cl` [I-28, (3,4-dichloroisothiazol-5-yl)methyl thioacetate], the Evaluation entry is given as “C (protective value: less than 80.0% to 50.0% or more)” and the Protective value turned out to be 79.9%.

`COc1cccc(OC)c1C(=O)OCc1snc(Cl)c1Cl` [II-79]: the Evaluation result is listed as “A (protective value: 100% to 90.0% or more)” and the Protective value came out at 92.3%.

As for `CC=CC=CC(=O)OCc1snc(Cl)c1Cl` [I-24], the Evaluation entry is recorded as “A (protective value: 100% to 90.0% or more)” and the Protective value worked out at 95.2%.

For `Cc1ccccc1C(=O)OCc1snc(Cl)c1Cl` [II-5], the Evaluation result is “A (protective value: 100% to 90.0% or more)” and the Protective value turned out to be 94.6%.

On to `O=C(OCc1snc(Cl)c1Cl)c1ccccc1Cl` [II-14], for which the Evaluation entry is recorded as “A (protective value: 100% to 90.0% or more)” and the Protective value is 92.4%.

Consider `COC(=O)c1ccccc1C(=O)OCc1snc(Cl)c1Cl` [II-24], for which the Evaluation result is “A (protective value: 100% to 90.0% or more)” and the Protective value was determined as 98.3%.

Take `COc1ccccc1C(=O)OCc1snc(Cl)c1Cl` [II-57]: the Evaluation result was “A (protective value: 100% to 90.0% or more)” and the Protective value came out at 98.4%.

For `O=C(OCc1snc(Cl)c1Cl)c1c(Cl)cccc1Cl` [II-78], the Evaluation entry was “C (protective value: less than 80.0% to 50.0% or more)” and the Protective value amounted to 77.5%.

A further data set concerns Colletotrichum orbiculare. In words: Test for preventive effect for cucumber anthracnose. The format is in vivo. Particulars: cucumber (Sagamihanjiro), soil drench 10 ml at 1 ppm, inoculated 7 days later, lesions counted 7 days later. Here is the method: Four cucumber seeds (variety: Sagamihanjiro) were sowed in a plastic cup of 5.5 cm in diameter, at a depth of 2 cm, and were grown in a greenhouse for 7 days. One of wettable powders prepared according to Example 5 was diluted with water so that the concentration of active ingredient became a given level. 10 ml of the dilution was poured into the soil at the root of young cucumber seedlings having cotyledons. 7 days later, a conidia suspension (10^5 to 10^6/ml) of Colletotrichum orbiculare which had been cultured in a PDA plate medium, was uniformly inoculated to the cucumber plant by hand spraying. The cup was allowed to stand, for infection, in a moist chamber of 25° C. for 24 hours. Then, the cup was allowed to stand on a basin in a glass greenhouse and, 7 day later, the number of lesions of all cotyledons in pot was examined. A protective value was calculated from the above expression 1 and evaluated according to the standard of Table 12.
Using the above-shown comparative compound, a wettable powder was prepared according to Example 5. A protective value thereof was calculated in the same manner as in the above Test Example.
Take `O=C(OCc1snc(Cl)c1Cl)c1ccccc1` [II-1, (3,4-dichloroisothiazol-5-yl)methyl benzoate]: the Evaluation entry was “B (protective value: less than 90.0% to 80.0% or more)” and the Protective value was 89.1%.

With `CC(=O)OCc1snc(Cl)c1Cl` [I-1], the Evaluation entry is “B (protective value: less than 90.0% to 80.0% or more)” and the Protective value came to 86.9%.

Take `Cc1cc(COC(=O)c2cc(C)ns2)sn1` [Comparative compound, reference compound]: the Evaluation result was “C (protective value: less than 80.0% to 50.0% or more)” and the Protective value worked out at 73.3%.

For `CC=CC=CC(=O)OCc1snc(Cl)c1Cl` [I-24], the Evaluation result is “B (protective value: less than 90.0% to 80.0% or more)” and the Protective value was 89.1%.

In a further data set the test system is Stagonospora nodorum. As to the kind of experiment: Test for preventive effect on wheat glume blotch. Format: in vivo. The following applies: wheat (Nohrin No. 61), foliar spray 500 ppm, examined 12 days after inoculation. The protocol:
Disease development degree=[(n0×0+n1×1+n2×2+n3×3+n4×4)/4×N]×100 [Expression 2]
n4: number of leaves of disease development degree 4 Protective value=[1−(disease development degree in treated plants)/(disease development degree in untreated plants)]×100 [Expression 3]
10 wheat seeds (variety: Nohrin No. 61) were sowed in a plastic cup of 5.5 cm in diameter and were grown in a greenhouse for 7 days. One of wettable powders prepared in accordance with Example 5 was diluted with water so that the concentration of active ingredient became 500 ppm, a spreader (brand name: KUMITEN) was added for the dilution factor to be 3,000 times, and a sufficient amount of the resulting solution was sprayed onto the leaves of wheat (1.5- to 2-leaf stage) using a spray gun. After air-drying, a suspension of the pycniospores of Stagonospora nodorum was sprayed for inoculation. Immediately thereafter, the wheat leaves were transferred into a moist chamber of 25° C. and allowed to stand under a bright condition for 48 hours for infection. Then, the wheat leaves were transferred into the greenhouse and, 12 days after the inoculation, the disease development index of each first leaf was examined according to the standard of Table 15. A disease development degree was calculated from the above expression 2. A protective value (%) was calculated from the above expression 3 and evaluated according to the standard of Table 16.
With `Cc1cccc(C)c1C(=O)OCc1snc(Cl)c1Cl` [II-77], the Evaluation result is recorded as “A (protective value: 100% to 75% or more)”.

For `Cc1cccc([N+](=O)[O-])c1C(=O)OCc1snc(Cl)c1Cl` [II-82], the Evaluation result is reported as “A (protective value: 100% to 75% or more)”.

In the case of `CS(=O)(=O)c1ccccc1C(=O)OCc1snc(Cl)c1Cl` [II-66], the Evaluation result is on record as “A (protective value: 100% to 75% or more)”.

Consider `O=C(OCc1snc(Cl)c1Cl)c1ccccc1[N+](=O)[O-]` [II-55], for which the Evaluation entry is recorded as “A (protective value: 100% to 75% or more)”.

Consider `Cc1cc(COC(=O)c2cc(C)ns2)sn1` [Comparative compound, reference compound], for which the Evaluation entry is “D (protective value: less than 25%)”.

As for `COc1cccc(OC)c1C(=O)OCc1snc(Cl)c1Cl` [II-79], the Evaluation entry is “A (protective value: 100% to 75% or more)”.

Regarding `Cc1ccccc1C(=O)OCc1snc(Cl)c1Cl` [II-5], the Evaluation entry is given as “A (protective value: 100% to 75% or more)”.

Regarding `O=C(OCc1snc(Cl)c1Cl)c1ccccc1Cl` [II-14], the Evaluation entry was “B (protective value: less than 75% to 50% or more)”.

Regarding `COC(=O)c1ccccc1C(=O)OCc1snc(Cl)c1Cl` [II-24], the Evaluation entry is on record as “A (protective value: 100% to 75% or more)”.

`COc1ccccc1C(=O)OCc1snc(Cl)c1Cl` [II-57]: the Evaluation result was “A (protective value: 100% to 75% or more)”.

Regarding `O=C(OCc1snc(Cl)c1Cl)c1c(Cl)cccc1Cl` [II-78], the Evaluation entry is recorded as “B (protective value: less than 75% to 50% or more)”.

Test system in the next data set: not given
Assay: not given
Settings: not given
In turn, `O=C(OCc1snc(Cl)c1Cl)c1ccccc1` [II-1, (3,4-dichloroisothiazol-5-yl)methyl benzoate] displayed a melting point of 79 to 80 °C.

Source of the values: US8003675B2 (priority 2006, dated 2011).
